Here are results for 1 compound from patent US20090092603A1, “EARLY DIAGNOSIS AND TREATMENT OF DRUG RESISTANCE IN MUC1-POSITIVE CANCER” (priority 2007, published 2009).

The subject of the series is HERCEPTIN-resistant BTRes1 cells. The settings on record: drug with control Fab, compared to BT474.

The structures appear in SMILES notation. Read-outs that look alike come from different tables or passages of the source.

For `O=P1(N(CCCl)CCCl)NCCCO1` (centres unmarked) [cyclophosphamide], the “cytotoxic effect of the drug in cells that acquired HERCEPTIN® resistance” value is “acquired resistance”. Further, the “cytotoxic effect of the drug in cells that acquired HERCEPTIN® resistance” value (listed as Cyclophosphamide) is given as “lost”.
